Experiments:
[1] = system: S. typhimurium TA98; test: Ames microplate test, TA98; type: cell-based, Salmonella typhimurium
Method: (§1) Bacteria were grown overnight in growth medium.

[2] = system: S. typhimurium TA1535; test: Ames microplate test, TA1535;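 further: bacteria exposed 90 min at 37 °C in exposure medium, then 48 h in indicator medium in 384-well plates, yellow (revertant) wells counted per condition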
[3] = system: E. coli WP2; test: Ames microplate test, E. coli WP2;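 further: bacteria exposed to compound for 90 min at 37 °C in 24-well plates, then transferred with indicator medium to 384-well plates and incubated 48 h before yellow well counting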
[4] = system: S. typhimurium TA100; test: Ames microplate test, TA100; type: cell-based, Salmonella typhimurium
[5] = system: S. typhimurium TA1537; test: Ames microplate test, TA1537; type: cell-based, Salmonella typhimurium
Method: as §1

[6] = system: human reconstructed epidermis model EpiDerm; test: Extended skin irritation test in reconstructed human epidermis EpiDerm; type: cell-based; settings: 1.0% in 50% PEG (10 μL)
Method: Extended Skin Irritation Tests on Reconstructed Human Epidermis-Exposure Time Extended to 7 Days.
In order to perform extended skin irritation (safety) tests on the reconstructed human epidermis, the exposure time to the tested compounds was extended to 2 and 7 days in the human reconstructed epidermis model EpiDerm™ from MatTek. The epidermis was cultured according to the manufacturer's recommendations, using appropriate multi-well plates and culture media. Solutions of the tested compounds were applied to the epidermis using a positive displacement pipette and distributed using a sterile glass bulb headed Pasteur pipette. […] The epidermis was cultured in an incubator ensuring appropriate humidity, temperature (37° C.) and CO2 concentration (5%). The medium was replaced daily. After an appropriate incubation time, i.e. 2 days or 7 days, the epidermis was rinsed with sterile DPBS and incubated with MTT (Thiazolyl Blue Tetrazolium bromide) solution at 37° C. for 3 hours. After this time, a purple color of formazan was observed, correlated with tissue viability. […] Moreover, in the medium collected after the first 24 hours of EpiDerm epidermis culture, the level of interleukin 1α (Il-1α), which is a mediator of inflammation, was determined. Its level correlates with the unfavorable (irritating) effect of the tested substances on the epidermis. The level of IL-1α was determined using the Cayman Elisa test.

Q: How did the “Increase in the number of yellow wells compared to the reference level, TA98” value (“Increase in the number of yellow wells … TA98” for short) ([1]; 0.5 mM, + S9) turn out when `O=C(/C=C/c1ccccc1)NCCCCCCO` [H-425/21, (E)-N-(6-hydroxyhexyl)cinnamic acid amide] was run?
A: 0.42

Q: And the “Increase in the number of yellow wells … TA98” value ([1]; 0.5 mM, without S9)?
A: 0.27

Q: And the “Increase in the number of yellow wells … TA98” value ([1]; 1.0 mM, + S9)?
A: 0.42

Q: What about the “Increase in the number of yellow wells … TA98” value ([1]; 1.0 mM, without S9) of the same compound?
A: 0.54

Q: And the “Increase in the number of yellow wells … TA98” value ([1]; 2.0 mM, + S9)?
A: 0.63

Q: And the “Increase in the number of yellow wells … TA98” value ([1]; 2.0 mM, without S9)?
A: 0.80

Q: What about the “Increase in the number of yellow wells compared to the reference level, TA1535” value (“Increase in the number of yellow wells … TA1535” below) ([2]; 0.5 mM, + S9) of the same compound?
A: 0.54

Q: What about the “Increase in the number of yellow wells … TA1535” value ([2]; 0.5 mM, without S9) of the same compound?
A: 1.04

Q: What about the “Increase in the number of yellow wells … TA1535” value ([2]; 1.0 mM, + S9) of the same compound?
A: 0.40

Q: What about the “Increase in the number of yellow wells … TA1535” value ([2]; 1.0 mM, without S9) of the same compound?
A: 0.59

Q: And the “Increase in the number of yellow wells … TA1535” value ([2]; 2.0 mM, + S9)?
A: 0.94

Q: What about the “Increase in the number of yellow wells … TA1535” value ([2]; 2.0 mM, without S9) of the same compound?
A: 0.45

Q: And the “Increase in the number of yellow wells compared to the reference level, E. coli WP2” value (“Increase in the number … E. coli WP2” for short) ([3]; 0.5 mM, + S9)?
A: 0.75

Q: What about the “Increase in the number … E. coli WP2” value ([3]; 0.5 mM, without S9) of the same compound?
A: 0.17

Q: What about the “Increase in the number … E. coli WP2” value ([3]; 1.0 mM, + S9) of the same compound?
A: 0.83

Q: And the “Increase in the number … E. coli WP2” value ([3]; 1.0 mM, without S9)?
A: 0.67

Q: What about the “Increase in the number … E. coli WP2” value ([3]; 2.0 mM, + S9) of the same compound?
A: 0.75

Q: And the “Increase in the number … E. coli WP2” value ([3]; 2.0 mM, without S9)?
A: 1.00

Q: What about the “Increase in the number of yellow wells compared to the reference level, TA100” value (shortened to “Increase in the number of yellow wells … TA100”) ([4]; 0.5 mM, + S9) of the same compound?
A: 0.50

Q: What about the “Increase in the number of yellow wells … TA100” value ([4]; 0.5 mM, without S9) of the same compound?
A: 0.73

Q: And the “Increase in the number of yellow wells … TA100” value ([4]; 1.0 mM, + S9)?
A: 0.69

Q: What about the “Increase in the number of yellow wells … TA100” value ([4]; 1.0 mM, without S9) of the same compound?
A: 0.80

Q: What about the “Increase in the number of yellow wells … TA100” value ([4]; 2.0 mM, + S9) of the same compound?
A: 0.58

Q: What about the “Increase in the number of yellow wells … TA100” value ([4]; 2.0 mM, without S9) of the same compound?
A: 0.73

Q: And the “Increase in the number of yellow wells compared to the reference level, TA1537” value (from here on “Increase in the number of yellow wells … TA1537”) ([5]; 0.5 mM, + S9)?
A: 1.33

Q: What about the “Increase in the number of yellow wells … TA1537” value ([5]; 0.5 mM, without S9) of the same compound?
A: 0.09

Q: What about the “Increase in the number of yellow wells … TA1537” value ([5]; 1.0 mM, + S9) of the same compound?
A: 0.00

Q: And the “Increase in the number of yellow wells … TA1537” value ([5]; 1.0 mM, without S9)?
A: 0.18

Q: And the “Increase in the number of yellow wells … TA1537” value ([5]; 2.0 mM, + S9)?
A: 1.00

Q: What about the “Increase in the number of yellow wells … TA1537” value ([5]; 2.0 mM, without S9) of the same compound?
A: 0.82

Q: What about the “Viability [% of control, mean ± SD] 2 days” value [6] of the same compound?
A: 99.75 ± 15.49 % of control

Q: What about the “Viability [% of control, mean ± SD] 7 days” value [6] of the same compound?
A: 104.01 ± 1.11 % of control

Q: What about the “Il-1α in culture medium” value ([6]; medium after first 24 hours) of the same compound?
A: 60.29 ± 1.08 pg/mL

Reference: patent US20250263376A1, “(E)-N-CINNAMOYLAMINOALKANOLS WITH MELANOGENESIS INHIBITORY ACTIVITY” (Uniwersytet Jagiellonski, priority 2024, published 2025)
